Measured values as given in patent publication US10420740B2, “Baclofen formulations and methods for making same” (SAOL INTERNATIONAL LIMITED, priority 2011, dated 2019).
One block for each compound: values may come before it.

Legend:
[1] = Comparison of R isomer and racemic baclofen for solubility, stability and pH; format: physicochemical; details: data not shown
Excerpt: Accordingly, the Examples presented herein, which employed a racemic mixture, are also applicable to the L-isomer […].

[2] = Stability of baclofen in sulfate or phosphate solutions over 9 weeks; format: physicochemical; details: phosphate or sulfate buffer with NaCl, pH 6, aqueous buffer
Procedure: The formulations were stored at 37° C., ambient temperature, and 4° C. over 9 weeks. pH, drug concentration, and 4-CPP were measured. Physical properties, such as particulate, precipitation, color and the like were observed.

[3] = therapeutically effective intrathecal concentrations, injected into the intrathecal space of a patient; cited from earlier work
[4] = reported by some sources; equilibrium with particulate baclofen present; cited from earlier work
[5] = pH profile of baclofen prior to steam sterilization and 4-CPP impurity levels post-steam sterilization; format: physicochemical; design: unit not given here; details: 4-CPP post-steam sterilization
Excerpt: In some embodiments, the present application provides methods and baclofen formulations having low 4-CPP concentrations by controlling the pH of the baclofen solution prior to steam sterilization, where the pH is in the range of between about 4.0 to about 7.0, the amount of 4-CPP formed is reduced, when the pH is raised to between about 5.0 to about 7.0 after heat sterilization. In some embodiments, the 4-CPP impurity levels are low at a pH of between about 4.0 to about 4.5. The pH profile of the baclofen, prior to steam sterilization and the 4-CPP impurity levels post-steam sterilization are shown below in Table A.

[6] = Rotarod (impaired motor skills) after intrathecal delivery to rats; format: in vivo; details: equivalent doses, data not shown
Procedure: Studies were performed to examine the effects of different baclofen compositions delivered intrathecally to rats. In one study, the therapeutic response mediated by spinal GABA-b receptors (thermal analgesia) with a nonspecific side effect (impaired motor skills on the rotarod) caused by L or DL-baclofen were compared. Equivalent doses of L-baclofen and DL-baclofen (adjusted to deliver the same amount of L-baclofen) produced very similar analgesic activity in the thermal nociception assay, while D-baclofen was ineffective (data not shown).

SMILES: NC[C@H](CC(=O)O)c1ccc(Cl)cc1 (single isomer, unassigned) [R isomer]
solubility, stability and pH relative to racemic mixtures of baclofen [1]: behave essentially the same

solubility at 9 weeks [2]: ≥ 4000 µg/mL | Impurity Level of 4-CPP ([5]; pH 4.0 prior to steam sterilization): 1.7 | Impurity Level of 4-CPP ([5]; pH 4.2 prior to steam sterilization): 1.3 | Impurity Level of 4-CPP ([5]; pH 4.4 prior to steam sterilization): 1.1 | Impurity Level of 4-CPP ([5]; pH 4.6 prior to steam sterilization): 0.7 | Impurity Level of 4-CPP ([5]; pH 4.8 prior to steam sterilization): 0.5 | Impurity Level of 4-CPP ([5]; pH 5.0 prior to steam sterilization): 0.4 | Impurity Level of 4-CPP ([5]; pH 5.2 prior to steam sterilization): 0.4 | Impurity Level of 4-CPP ([5]; pH 5.4 prior to steam sterilization): 0.5 | Impurity Level of 4-CPP ([5]; pH 5.6 prior to steam sterilization): 0.6 | Impurity Level of 4-CPP ([5]; pH 5.8 prior to steam sterilization): 0.7 | Impurity Level of 4-CPP ([5]; pH 6.0 prior to steam sterilization): 0.8 | Impurity Level of 4-CPP ([5]; pH 6.2 prior to steam sterilization): 0.9 | Impurity Level of 4-CPP ([5]; pH 6.4 prior to steam sterilization): 1.1 | Impurity Level of 4-CPP ([5]; pH 6.6 prior to steam sterilization): 1.2 | Impurity Level of 4-CPP ([5]; pH 6.8 prior to steam sterilization): 1.4 | Impurity Level of 4-CPP ([5]; pH 7.0 prior to steam sterilization): 1.5
SMILES: NCC(CC(=O)O)c1ccc(Cl)cc1 (stereo not shown) [Baclofen, 4-amino-3-(p-chlorophenyl)butyric acid]
plasma concentrations, intrathecal relative to oral administration [3]: 100 times less | upper limit on room temperature aqueous solubility [4]: about 4 mg/mL

SMILES: NC[C@H](CC(=O)O)c1ccc(Cl)cc1 [D-baclofen]
motor impairment on the rotarod [6]: no significant effect

SMILES: NC[C@H](CC(=O)O)c1ccc(Cl)cc1 [L-baclofen]
motor impairment on the rotarod [6]: statistically less motor impairment on the rotarod than DL-baclofen
